ChEMBL document CHEMBL1201862, “PubChem BioAssay data set” (2004)
The source made the active and inactive calls.

Columns and labels:
Major prion protein = Major prion protein (Homo sapiens, UniProt P04156); type: functional, cell-based
cells [1] = experiment: cells
[2] = HepG2 cell cytotoxicity, dose response, cytotoxicity control, plate reader, cherry-pick, antagonist series (AID 743416); type: functional, cell-based
BJ [3] = experiment: cells; type: functional, cell-based; conditions: Homo sapiens
[4] = Luminescence Cell-Based Dose Response HTS to Identify Inhibitors of 5'UTR Stem-Loop Driven Prion Protein mRNA Translation in H4 Neuroglioblastoma Cells. [Related pubchem assays: 1827 (Project Summary), 1813 (Primary HTS)]; type: functional
BJ [5] = experiment: cytotoxicity toward BJ-TERT-LT-ST fibroblasts, dose response, cell-based, RAS-independent, luminescence (AID 1935); type: functional; conditions: Homo sapiens;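 note: BJ fibroblasts immortalized with TERT plus LT and ST oncogenes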
BJ [6] = experiment: cytotoxicity toward BJ-TERT fibroblasts, dose response, cell-based, RAS-independent, luminescence (AID 1933); type: functional; conditions: Homo sapiens
[7] = LGR2 antagonists, dose response, cell-based, HEK293, CRE-luciferase reporter, cherry pick, set 2 (AID 743343); type: functional;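 note: transfected cells were stimulated with diluted bursicon conditioned medium after compound addition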
[8] = A549 cell cytotoxicity, dose response, cytotoxicity control, plate reader, cherry-pick, antagonist series (AID 743412); type: functional, cell-based
[9] = MC4R antagonists, dose response, counter-screen for LGR2 antagonist project, cell-based, plate reader, cherry pick (AID 743444); type: functional;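 note: transfected HEK 293 cells stimulated with alpha-MSH peptide; potency of inhibitors of the alpha-MSH evoked signal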
[10] = HEK293 cell cytotoxicity, dose response, cytotoxicity control, plate reader, cherry-picked samples (AID 743446); type: functional, cell-based
[11] = cytotoxicity toward DRD oncogenic fibroblasts, dose response, cell-based, non-viral oncogenic, luminescence (AID 1934); type: functional; conditions: Homo sapiens
[12] = inhibitors of SNCA 5'UTR-driven reporter translation, confirmation, H4 neuroglioma cells, luminescence (AID 1988); type: functional, cell-based
[13] = CEM21 lymphoblast cell cytotoxicity, dose response, cytotoxicity control for viral fusion inhibitor project, CellTiter-Glo luminescence, cherry-picked (AID 652042); type: functional, cell-based;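 note: potency for signal decrease meaning cytotoxicity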
[14] = inhibitors of HIV Env-driven cell fusion, dose response, cherry-pick (AID 652057); type: functional, cell-based
[15] = off-target signal loss in HeLa-CEM21 co-culture – HeLa F-luc CTL cells, cherry-picked, counter-screen for HIV-1 Env fusion inhibitor project, dose response (AID 652040); type: functional, cell-based;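 note: potency for signal decrease marking cytotoxic or nonspecific inhibition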
[16] = molecular target: Photoreceptor-specific nuclear receptor (Homo sapiens, UniProt Q9Y5X4); type: functional, cell-based;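 note: CHO-S cells with Gal4-NCOR and VP16-NR2E3 two-hybrid luciferase reporter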
[17] = Counterscreen for activators of the function of SWI/SNF related, matrix associated, actin dependent regulator of chromatin, subfamily a, member 2 (SMARCA2, BRM): Luminescence-based cell-based high throughput dose response assay to identify non-selective compounds using the VP16 reporter assay.; type: functional
[18] = molecular target: SWI/SNF-related matrix-associated actin-dependent regulator of chromatin subfamily A member 2 (Homo sapiens, UniProt P51531); experiment: Luminescence-based cell-based high throughput dose response assay to identify activators of the function of SWI/SNF related, matrix associated, actin dependent regulator of chromatin, subfamily a, member 2 (SMARCA2, BRM).; type: functional
Vero = experiment: Vero cell toxicity, dose response, cytotoxicity control, plate reader, cherry-pick samples (AID 687020); type: functional, cell-based; conditions: Chlorocebus sabaeus
[19] = molecular target: T1, Methionyl-tRNA synthetase, putative (Trypanosoma brucei brucei, UniProt Q38C91); type: functional, Trypanosoma brucei brucei strain 927/4 GUTat10.1
T1 sequence (Q38C91 whole entry): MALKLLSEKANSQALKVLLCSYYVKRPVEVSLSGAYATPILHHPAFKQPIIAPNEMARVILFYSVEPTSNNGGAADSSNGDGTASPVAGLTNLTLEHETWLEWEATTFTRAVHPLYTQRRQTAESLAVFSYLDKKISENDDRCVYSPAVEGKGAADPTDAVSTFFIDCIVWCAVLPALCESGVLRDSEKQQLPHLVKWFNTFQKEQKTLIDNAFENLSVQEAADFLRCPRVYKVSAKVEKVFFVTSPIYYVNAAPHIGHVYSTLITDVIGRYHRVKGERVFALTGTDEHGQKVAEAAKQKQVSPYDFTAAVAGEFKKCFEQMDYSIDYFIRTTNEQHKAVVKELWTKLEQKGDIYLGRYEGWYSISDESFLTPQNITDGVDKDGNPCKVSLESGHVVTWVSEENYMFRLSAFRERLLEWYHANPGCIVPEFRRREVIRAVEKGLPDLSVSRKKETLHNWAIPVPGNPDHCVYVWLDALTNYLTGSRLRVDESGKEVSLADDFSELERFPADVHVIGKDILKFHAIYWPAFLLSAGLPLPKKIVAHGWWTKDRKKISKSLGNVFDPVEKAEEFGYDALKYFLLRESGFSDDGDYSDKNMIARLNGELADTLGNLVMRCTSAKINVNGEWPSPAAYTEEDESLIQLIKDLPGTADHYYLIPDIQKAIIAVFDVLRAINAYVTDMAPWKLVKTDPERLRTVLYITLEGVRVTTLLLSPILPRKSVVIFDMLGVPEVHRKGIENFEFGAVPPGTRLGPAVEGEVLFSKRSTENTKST

[20] = Counterscreen for inhibitors of Trypanosoma brucei methionyl tRNA synthetase (MetRS): Luminescence-based cell-based high throughput dose response assay to identify compounds that are cytotoxic to Jurkat human T lymphocyte cells.; type: functional
[21] = molecular target: T1, Methionyl-tRNA synthetase, putative; type: functional, Trypanosoma brucei brucei strain 927/4 GUTat10.1; remark: listed apart in the source
fMet-Leu-Phe receptor = molecular target: T2, fMet-Leu-Phe receptor (Homo sapiens, UniProt P21462); experiment: FPR ligands, dose response (AID 519); type: functional
T2 sequence (P21462 whole entry): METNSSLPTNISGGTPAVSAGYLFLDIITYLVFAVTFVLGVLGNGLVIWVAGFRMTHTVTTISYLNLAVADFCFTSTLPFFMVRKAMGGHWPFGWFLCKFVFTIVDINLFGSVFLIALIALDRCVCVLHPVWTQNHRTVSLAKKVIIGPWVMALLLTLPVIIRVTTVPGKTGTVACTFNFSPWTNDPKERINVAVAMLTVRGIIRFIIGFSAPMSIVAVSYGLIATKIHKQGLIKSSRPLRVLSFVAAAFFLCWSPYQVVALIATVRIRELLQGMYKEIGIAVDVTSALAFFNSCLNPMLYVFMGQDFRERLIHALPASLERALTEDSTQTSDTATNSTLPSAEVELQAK

Streptococcus = experiment: Group A Streptococcus viability loss, dose response, counter-screen for streptokinase expression inhibitor project, luminescence, BacTiterGlo (AID 1915); type: functional, organism-based;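 note: potency for reduction of bacterial viability or growth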
[22] = ZM109 Env clade C HIV-1 fusion inhibitors, dose response, HeLa effector, CEM target cells, luciferase, cherry-pick (AID 652058); type: functional, cell-based
[23] = system: Streptococcus sp. 'group A'; experiment: growth inhibition of control SK(-) GAS strain, dose response, counter-screen for streptokinase expression inhibitor project, luminescence, kanamycin, BacTiterGlo, confirmation (AID 1900); type: functional, organism-based
[24] = C. albicans growth with fluconazole, confirmation, fluorescence, retest (AID 2467); type: functional, cell-based
[25] = inhibitors of clade B AD8 Env fusion, dose response, cell-based, cherry-pick (AID 652062); type: functional;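 note: luciferase signal from cell-cell fusion driven by HIV-1 clade B AD8 Env; potency is for inhibitors of fusion seen as a drop in luminescence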
[26] = NIH-3T3 fibroblast cytotoxicity, dose response, cytotoxicity control, cell-based, fluorescence, Alamar Blue, secondary assay (AID 2327); type: functional;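 note: NIH-3T3 mouse fibroblasts cultured with fluconazole at 8 µg/mL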
[27] = molecular target: T3, Heat shock factor protein 1 (Mus musculus, UniProt P38532); experiment: inhibition of MG132-induced HSE-luciferase signal, confirmation, cell-based, NIH3T3, luminescence, dose retest (AID 2382); type: functional;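 note: NIH3T3 fibroblasts with HSF1-driven luciferase reporter stressed by proteasome inhibitor MG132; luminescence from HSF1-driven luciferase expression after 8 hours of MG132 stress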
T3 sequence (P38532 whole entry): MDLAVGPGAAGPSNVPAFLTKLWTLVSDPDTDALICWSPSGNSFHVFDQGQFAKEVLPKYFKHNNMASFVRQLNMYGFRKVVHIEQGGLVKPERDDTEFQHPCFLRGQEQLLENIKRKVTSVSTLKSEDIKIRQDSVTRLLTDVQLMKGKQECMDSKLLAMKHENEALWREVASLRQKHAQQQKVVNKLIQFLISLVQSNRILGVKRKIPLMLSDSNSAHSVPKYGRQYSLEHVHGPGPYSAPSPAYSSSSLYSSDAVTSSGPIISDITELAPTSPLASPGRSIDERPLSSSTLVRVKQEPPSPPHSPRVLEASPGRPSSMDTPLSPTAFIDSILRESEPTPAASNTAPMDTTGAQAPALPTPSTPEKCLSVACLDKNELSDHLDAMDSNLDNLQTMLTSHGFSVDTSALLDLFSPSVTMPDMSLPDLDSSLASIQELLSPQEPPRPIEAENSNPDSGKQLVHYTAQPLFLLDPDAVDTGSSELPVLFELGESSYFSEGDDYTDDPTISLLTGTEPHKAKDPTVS

INS1 = experiment: beta cell apoptosis inhibitors, cytokine rescue, dose response, luminescence, retest (AID 449756); type: functional, cell-based; conditions: Rattus norvegicus;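 note: cell death triggered by IL-1 beta plus TNF-alpha plus IFN-gamma mixture; protective hits raise ATP signal compared with cytokine alone wells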
Paired box protein Pax-8 = Paired box protein Pax-8 (Homo sapiens, UniProt Q06710); experiment: inhibitors of PAX8-driven TPO luciferase reporter, dose response, RMG-I cells, cherry-pick (AID 687027); type: functional, cell-based;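 note: luciferase reporter driven by Pax8 target thyroperoxidase promoter measured by SteadyGlo luminescence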
[28] = cytotoxicity in OVCAR8 ovarian cancer cells, dose response, PAX8 project, cell-based, plate reader, dry powder samples (AID 743197); type: functional; conditions: OVCAR-8
[29] = T. cruzi growth inhibition in host cells, dose response, cell-based, plate reader, dry powder, set 2 (AID 652275); type: functional
cells [30] = type: functional

CC(=O)c1sccc1NC(=O)c1ccccc1C(=O)O
IC50 (Major prion protein): 3.09 µM (active)
IC50 (cells [1]): > 138 µM (inactive)

Cc1cccc(NC(=O)c2onc3c2CCCC3)n1
AC50 [2]: 19.4 µM (active)
EC50 (BJ [3]): 15 µM (active)
EC50 [4]: 8.8 µM (active)
EC50 (BJ [5]): > 150 µM (inconclusive)
EC50 (BJ [6]): 18 µM (active)
AC50 [7]: 3.23 µM (active)
AC50 [8]: 19.6 µM (active)
AC50 [9]: 5.51 µM (active)
AC50 [10]: 15.9 µM (active)
EC50 [11]: 13.3 µM (active)
EC50 [12]: 6.78 µM (active)

Cc1cccc(C)c1N(CC(O)Cn1c2ccccc2c2ccccc21)S(C)(=O)=O (stereo not given)
AC50 [13]: 60.4 µM (active)
AC50 [14]: 17.1 µM (active)
AC50 [15]: > 70 µM (inactive)

COc1ccc2c(CC(=O)Nc3ncc(C)s3)coc2c1
IC50 [16]: 1.11 µM (active)
EC50 [17]: > 91.2 µM (inactive)
EC50 [18]: > 91.2 µM (inactive)

NC(=O)c1cc(Cl)cn(-c2ccccc2)c1=O
AC50 (Vero): 33.7 µM (active)

O=C(COC(=O)CCCOc1ccc(Cl)cc1Cl)Nc1cccc(Cl)c1
IC50 [19]: 9.07 µM (active)
IC50 [20]: 83.3 µM (inactive)
IC50 [21]: 16.5 µM (inactive)

O=C(Nc1ccccc1)Nc1nnc(COc2ccccc2F)s1
IC50 [19]: 42.9 µM (inactive)
IC50 [20]: 71 µM (inactive)
IC50 [21]: 35.7 µM (inactive)

COc1ccc(C(C(=O)NC2CCCC2)N2CCc3ccccc32)cc1 (stereo not given)
AC50 (Vero): 29.5 µM (active)

COc1ccc(C(=O)C2=C(O)C(=O)N(Cc3ccco3)C2c2ccc(OC)cc2OC)cc1 (stereo not given)
Ki (fMet-Leu-Phe receptor): > 66.7 µM (inactive)

CC1CCCCN1S(=O)(=O)c1ccc(C(=O)Nc2nnc(-c3cccs3)o2)cc1 (stereo not given)
EC50 (Streptococcus): 4.49 µM (active)
AC50 [13]: 35.7 µM (active)
AC50 [22]: 14.6 µM (active)
EC50 [23]: 2.05 µM (active)
AC50 [14]: 32.8 µM (active)
EC50 [24]: 1.11 µM (active)
AC50 [25]: 16.6 µM (active)
EC50 [26]: > 150 µM (inactive)

O=C(Oc1c(CN2CCOCC2)cc(Cl)c2cccnc12)c1ccccc1Br
EC50 [27]: 31.3 µM (active)
AC50 (INS1): 6.56 µM (active)
EC50 [17]: > 91.1 µM (inactive)
EC50 [24]: 3.49 µM (active)
EC50 [26]: 135 µM (active)
EC50 [18]: > 91.1 µM (inactive)

N=C(NOC(=O)COc1ccc2ccccc2c1Br)c1ccccn1
IC50 (Major prion protein): 4.71 µM (active)
IC50 (cells [1]): > 138 µM (inactive)

Nc1ncnc2c(C3OC(CO)C(O)C3O)scc12 (stereo not given)
AC50 [13]: < 0.26 µM (active)
AC50 [22]: 2.04 µM (active)
AC50 [14]: 0.322 µM (active)
AC50 (Paired box protein Pax-8): < 0.26 µM (active)
AC50 [15]: 3.78 µM (active)
AC50 [25]: 3.45 µM (active)

O=C(C[C@@H]1CC[C@H]2[C@@H](COC[C@@H](O)CN2Cc2cccc(C(F)(F)F)c2)O1)NCc1ccc(F)cc1
AC50 (Paired box protein Pax-8): 27.9 µM (active)
AC50 [28]: 51.7 µM (active)

O=C1c2ccccc2S(=O)(=O)c2cc(N3CCN(C(=O)c4ccccc4)CC3)ccc21
AC50 [2]: > 52 µM (inactive)
AC50 [7]: 20.8 µM (active)
AC50 [8]: 23.5 µM (active)
AC50 [9]: 22.3 µM (active)
AC50 [10]: > 52 µM (inactive)

CC(C)N1C[C@@H](CN(C)Cc2ccc(Cl)cc2)Oc2c(NC(=O)c3ccncn3)cccc2C1=O
AC50 [29]: 0.00548 µM (active)

CN(C)C(=O)c1cccc(-c2ccc([C@@H]3[C@@H](CO)N4CCCCN(C(=O)C5CCC5)C[C@H]34)cc2)c1
AC50 [29]: 14.4 µM (active)

N/N=C(/Cc1nc2ccccc2[nH]1)c1ccc([N+](=O)[O-])cc1
IC50 [19]: 6.69 µM (active)
IC50 [20]: 83.3 µM (inactive)
IC50 [21]: 3.17 µM (active)
IC50 (cells [30]): 19 µM (active)

CCc1c(C)[nH]c2c(C#N)c(C)nn2c1=O
Ki (fMet-Leu-Phe receptor): 21.7 µM (inactive)

O=C(O)c1cc(=O)c2c(OCC(O)COc3cccc4oc(C(=O)O)cc(=O)c34)cccc2o1 [CROMOLYN SODIUM]
AC50 (Vero): 34.3 µM (active)
